Source: the NIST ThermoML archive (doi:10.1021/je049671t)

Assay: xn = mol fraction of the nth substance listed
Details: Liquid, Vibrating tube method

CCCC [butane] + CCC
Details	mass density [kg/m3]
300 K, 4513.8 kPa, x2 = 0.75	523.55
300 K, 4514.7 kPa, x2 = 0.5	543.88
300 K, 4953.2 kPa, x2 = 0.5	544.76
300 K, 5016.7 kPa, x2 = 0.75	524.69
300 K, 5031 kPa, x2 = 0.25	562.9
300 K, 5451.1 kPa, x2 = 0.25	563.65
300 K, 5474.7 kPa, x2 = 0.75	525.74
300 K, 5508.8 kPa, x2 = 0.5	545.86
300 K, 5929.8 kPa, x2 = 0.25	564.5
300 K, 5950 kPa, x2 = 0.75	526.78
300 K, 5953 kPa, x2 = 0.5	546.73
300 K, 6466.1 kPa, x2 = 0.5	547.72
300 K, 6473.6 kPa, x2 = 0.75	527.92
300 K, 6488.8 kPa, x2 = 0.25	565.48
300 K, 6959.9 kPa, x2 = 0.5	548.68
300 K, 7015.2 kPa, x2 = 0.75	529.08
300 K, 7074.7 kPa, x2 = 0.25	566.49
320 K, 997.4 kPa, x2 = 0.25	529.12
320 K, 1482.2 kPa, x2 = 0.25	530.41
320 K, 1496.3 kPa, x2 = 0.5	509.2
320 K, 1509.8 kPa, x2 = 0.75	484.66
320 K, 1996.7 kPa, x2 = 0.25	531.76
320 K, 2010.3 kPa, x2 = 0.5	510.79
320 K, 2020.7 kPa, x2 = 0.75	486.64
320 K, 2497.1 kPa, x2 = 0.75	488.41
320 K, 2502.8 kPa, x2 = 0.25	533.06
320 K, 2516.5 kPa, x2 = 0.5	512.32
320 K, 2999.8 kPa, x2 = 0.5	513.74
320 K, 3011.6 kPa, x2 = 0.75	490.26
320 K, 3012.6 kPa, x2 = 0.25	534.34
320 K, 3459.5 kPa, x2 = 0.75	491.82
320 K, 3509.2 kPa, x2 = 0.5	515.19
320 K, 3516.7 kPa, x2 = 0.25	535.58
320 K, 4012.1 kPa, x2 = 0.25	536.73
320 K, 4013.7 kPa, x2 = 0.75	493.68
320 K, 4017.1 kPa, x2 = 0.5	516.6
320 K, 4472 kPa, x2 = 0.25	537.8
320 K, 4497.4 kPa, x2 = 0.5	517.9
320 K, 4512.7 kPa, x2 = 0.75	495.29
320 K, 4988.6 kPa, x2 = 0.5	519.21
320 K, 4989.7 kPa, x2 = 0.25	539
320 K, 5019.1 kPa, x2 = 0.75	496.89
320 K, 5490.6 kPa, x2 = 0.5	520.51
320 K, 5501 kPa, x2 = 0.25	540.19
320 K, 5520.4 kPa, x2 = 0.75	498.43
320 K, 5989.8 kPa, x2 = 0.5	521.77
320 K, 6001.7 kPa, x2 = 0.75	499.85
320 K, 6013.9 kPa, x2 = 0.25	541.36
320 K, 6479.5 kPa, x2 = 0.5	522.98
320 K, 6522.9 kPa, x2 = 0.75	501.37
320 K, 6524.6 kPa, x2 = 0.25	542.42
320 K, 7003.8 kPa, x2 = 0.25	543.49
320 K, 7020.7 kPa, x2 = 0.75	502.78
320 K, 7116.4 kPa, x2 = 0.5	524.52
340 K, 1485.3 kPa, x2 = 0.25	500.98
340 K, 1990.9 kPa, x2 = 0.25	502.87
340 K, 1994.9 kPa, x2 = 0.75	448.06
340 K, 2013.6 kPa, x2 = 0.5	478.5
340 K, 2454.3 kPa, x2 = 0.25	504.54
340 K, 2508.8 kPa, x2 = 0.5	480.75
340 K, 2527.2 kPa, x2 = 0.75	451.44
340 K, 2997.6 kPa, x2 = 0.25	506.44
340 K, 3013.6 kPa, x2 = 0.5	482.96
340 K, 3018 kPa, x2 = 0.75	454.37
340 K, 3488 kPa, x2 = 0.25	508.09
340 K, 3515.5 kPa, x2 = 0.5	485.04
340 K, 3542.6 kPa, x2 = 0.75	457.27
340 K, 3984.5 kPa, x2 = 0.25	509.71
340 K, 4016.2 kPa, x2 = 0.5	487.04
340 K, 4021.6 kPa, x2 = 0.75	459.81
340 K, 4469.1 kPa, x2 = 0.75	462.01
340 K, 4496.8 kPa, x2 = 0.5	488.89
340 K, 4514.8 kPa, x2 = 0.25	511.39
340 K, 4981.8 kPa, x2 = 0.25	512.84
340 K, 4991.2 kPa, x2 = 0.75	464.48
340 K, 5012.2 kPa, x2 = 0.5	490.8
340 K, 5479.2 kPa, x2 = 0.25	514.33
340 K, 5511.6 kPa, x2 = 0.5	492.6
340 K, 5517 kPa, x2 = 0.75	466.87
340 K, 5958.5 kPa, x2 = 0.25	515.74
340 K, 5990.2 kPa, x2 = 0.75	468.91
340 K, 6031.2 kPa, x2 = 0.5	494.4
340 K, 6477.8 kPa, x2 = 0.25	517.22
340 K, 6495 kPa, x2 = 0.75	471.01
340 K, 6534.4 kPa, x2 = 0.5	496.09
340 K, 6953.2 kPa, x2 = 0.75	472.85
340 K, 6991.8 kPa, x2 = 0.25	518.67
340 K, 7014.4 kPa, x2 = 0.5	497.66
360 K, 1968.3 kPa, x2 = 0.25	468.3
360 K, 2483.2 kPa, x2 = 0.25	471.24
360 K, 2528 kPa, x2 = 0.5	441.58
360 K, 2981.1 kPa, x2 = 0.75	400.91
360 K, 3014.4 kPa, x2 = 0.5	445.35
360 K, 3030.5 kPa, x2 = 0.25	474.17
360 K, 3479.5 kPa, x2 = 0.25	476.45
360 K, 3504.1 kPa, x2 = 0.75	407.74
360 K, 3530.7 kPa, x2 = 0.5	449
360 K, 4004.6 kPa, x2 = 0.25	478.98
360 K, 4023.8 kPa, x2 = 0.5	452.26
360 K, 4034.2 kPa, x2 = 0.75	413.59
360 K, 4494.7 kPa, x2 = 0.25	481.23
360 K, 4499.5 kPa, x2 = 0.75	418.08
360 K, 4529.2 kPa, x2 = 0.5	455.37
360 K, 4959.4 kPa, x2 = 0.75	422.1
360 K, 5018.1 kPa, x2 = 0.25	483.52
360 K, 5025.4 kPa, x2 = 0.5	458.22
360 K, 5477.4 kPa, x2 = 0.75	426.13
360 K, 5492.3 kPa, x2 = 0.25	485.53
360 K, 5525 kPa, x2 = 0.5	460.95
360 K, 5965.8 kPa, x2 = 0.75	429.75
360 K, 5999.9 kPa, x2 = 0.25	487.58
360 K, 6017.8 kPa, x2 = 0.5	463.52
360 K, 6472.2 kPa, x2 = 0.25	489.44
360 K, 6494 kPa, x2 = 0.75	433.3
360 K, 6530.6 kPa, x2 = 0.5	466.12
360 K, 6960.2 kPa, x2 = 0.75	436.27
360 K, 6966.9 kPa, x2 = 0.25	491.3
360 K, 6972.7 kPa, x2 = 0.5	468.36
380 K, 2507.8 kPa, x2 = 0.25	426.44
380 K, 3006.4 kPa, x2 = 0.25	431.76
380 K, 3508.7 kPa, x2 = 0.25	436.48
380 K, 3523.1 kPa, x2 = 0.5	395.46
380 K, 3998.7 kPa, x2 = 0.25	440.67
380 K, 4001.1 kPa, x2 = 0.5	402.87
380 K, 4476.5 kPa, x2 = 0.5	409.03
380 K, 4501.1 kPa, x2 = 0.25	444.52
380 K, 4538.7 kPa, x2 = 0.75	349.07
380 K, 4998.7 kPa, x2 = 0.25	448.08
380 K, 5019 kPa, x2 = 0.5	415.08
380 K, 5025.3 kPa, x2 = 0.75	362.3
380 K, 5491.2 kPa, x2 = 0.75	371.58
380 K, 5494.5 kPa, x2 = 0.5	419.73
380 K, 5497.5 kPa, x2 = 0.25	451.38
380 K, 5962.5 kPa, x2 = 0.5	423.89
380 K, 5986.2 kPa, x2 = 0.75	379.48
380 K, 5995.5 kPa, x2 = 0.25	454.49
380 K, 6480.6 kPa, x2 = 0.5	428.09
380 K, 6502.4 kPa, x2 = 0.25	457.46
380 K, 6503.9 kPa, x2 = 0.75	386.32
380 K, 6897.6 kPa, x2 = 0.75	390.75
380 K, 6908.8 kPa, x2 = 0.5	431.3
380 K, 6952.8 kPa, x2 = 0.25	459.99

mass density [kg/m3]
Details	300 K	320 K	340 K	360 K	380 K
x2 = 0.25	554.07	528.42	499.52	466.36	424.79
x2 = 0.5	535.4	507.52	475.99	–	387.07
x2 = 0.75	514.2	483.71	447.59	398.44	–
